IC50 data for 43 compounds are collected here from patent US10829499B2, “Tetracyclic heterocycle compounds useful as HIV integrase inhibitors” (MERCK SHARP & DOHME CORP., priority 2016, dated 2020).

The test system of the experiment is HIV-1 (NL4-3 strain). The experiment is described as follows: Assay for Inhibition of HIV Replication (kinetic assay, MT4-gag-GFP reporter cell line; VIKING). The experiment is classed as cell-based. How it is done:
This assay is a kinetic assay that employs a reporter cell line (MT4-gag-GFP) to quantify the number of new cells infected in each round of replication.
MT4-GFP cells (250,000 cells/ml) were bulk-infected with HIV-1 (NL4-3 strain) at low multiplicity of infection (MOI) in RPMI cell culture medium+10% FBS for 24 hours. Cells were then washed once in RPMI cell culture medium+10% FBS and resuspended in RPMI cell culture medium+0% or 10% or 100% normal human serum (NHS). Test compounds were serial-diluted in DMSO on an ECHO® liquid handler. The infected MT4-GFP cells were added to a 384-well poly-D-lysine coated black plate with clear bottom in which the diluted test compounds were placed. The cells were seeded at 8,000 cells per well and the final DMSO concentration was 0.4%. The infected cells (Green GFP cells) were quantified at both 24 and 48 hours post incubation using Acumen eX3. Viral reproductive ratio (R0) was determined using the number of infected cells at 48 hours divided by the number of infected cells at 24 hours. Percent viral growth inhibition was calculated by [1-(R-Rtripledrug),/(RDMSO-Rtripledrug)]*100. Compound potency IP or IC50 was determined by a 4-parameter dose response curve analysis. In vitro potency in the cell-based assay in the absence of normal human serum (NHS) and the presence of 100% NHS.

Setting [1] is: Human immunodeficiency virus 1, NL43, MT4-GFP cells infected with HIV-1 NL4-3, 0% normal human serum (NHS), read-out: VIKING IP50 (nM) with 0% NHS.
The mark [2] stands for this setting: MT4-GFP cells infected with HIV-1 NL4-3, 100% normal human serum (NHS), read-out: VIKING IP50 (nM) with 100% NHS.
[3] abbreviates: Human immunodeficiency virus 1, NL43, MT4-GFP cells infected with HIV-1 NL4-3, 100% normal human serum (NHS), read-out: VIKING IP50 (nM) with 100% NHS.
The mark [4] stands for this setting: MT4-GFP cells infected with HIV-1 NL4-3, 0% normal human serum (NHS), read-out: VIKING IP50 (nM) with 0% NHS.

Where two headings read alike, the source gives them in different places.

With `O=C(NCc1ccc(F)cc1F)c1c2n3c(c(O)c1=O)C(=O)N1CCOC1C3CC2` (single isomer, unassigned) [Compound 9], the IC50 under setting [1] stood at 0.7 nM and the IC50 under setting [2] stood at 1130 nM.

In the case of `C[C@@H]1COC2C3CCc4c(C(=O)NCc5ccc(F)cc5F)c(=O)c(O)c(n43)C(=O)N21` (some centres unmarked) [Compound 32], the IC50 came out at 0.671 nM under setting [1] and 101 nM under setting [3].

Turning to `C[C@H]1CN2C(=O)c3c(O)c(=O)c(C(=O)NCc4cccc(Cl)c4F)c4n3C(CC4)C2N1` (some centres unmarked) [Compound 94], the IC50 by setting is: under setting [4], 0.503 nM; under setting [2], 14.5 nM.

For `O=C(NCc1c(F)cccc1F)c1c2n3c(c(O)c1=O)C(=O)N1CCOC1C3CC2` (single isomer, unassigned) [Compound 14], the IC50 reads like this: under setting [4], 0.827 nM; under setting [2], 194 nM.

On to `CCNC1CC2C3OCCCN3C(=O)c3c(O)c(=O)c(C(=O)NCc4cccc(Cl)c4F)c1n32` (centres unmarked) [Compound 198], for which the IC50 under setting [4] came out at 5.29 nM and the IC50 under setting [2] was 96.9 nM.

For the compound `O=C(NCc1ccccc1F)c1c2n3c(c(O)c1=O)C(=O)N1CCOC1C3CC2` (single isomer, unassigned) [Compound 11], the IC50 under setting [4] is 1.09 nM and the IC50 under setting [2] was found to be 589 nM.

For the compound `CCCN1C2C3CCc4c(C(=O)NCc5cccc(Cl)c5F)c(=O)c(O)c(n43)C(=O)N2C[C@@H]1C` (some centres unmarked) [Compound 108], the IC50 by setting is: under setting [4], 1.17 nM; under setting [2], 80.1 nM.

As for `CN1CCCN2C(=O)c3c(O)c(=O)c(C(=O)NCc4ccc(F)cc4F)c4n3C(CC4)C12` (centres unmarked) [Compound 80], the IC50 by setting is: under setting [1], 0.662 nM; under setting [3], 13.8 nM.

On to `C[C@H]1CNC2C3CCc4c(-c5nnc(Cc6ccc(F)cc6F)s5)c(=O)c(O)c(n43)C(=O)N21` (some centres unmarked) [Compound 129], for which the IC50 is, setting by setting: under setting [4], 15.3 nM; under setting [2], 283 nM.

Take `C[C@H]1CN2C(=O)c3c(O)c(=O)c(-c4nnc(Cc5ccc(F)cc5F)s4)c4n3C(CC4)C2N1` (some centres unmarked) [Compound 131]: the IC50 is, setting by setting: under setting [4], 2.33 nM; under setting [2], 36.1 nM.

On to `O=C(NCc1cccc(Cl)c1F)c1c2n3c(c(O)c1=O)C(=O)N1CCCOC1C3CC2` (single isomer, unassigned) [Compound 50], for which the IC50 turned out to be 0.901 nM under setting [4] and 1070 nM under setting [2].

Turning to `O=C(NCc1ccc(F)cc1F)c1c2n3c(c(O)c1=O)C(=O)N1CCCOC1C3CC2` (single isomer, unassigned) [Compound 55], the IC50 reads like this: under setting [1], 1.03 nM; under setting [2], 39.5 nM.

Consider `C[C@H]1CN2C(=O)c3c(O)c(=O)c(C(=O)NCc4cccc(Cl)c4F)c4n3C(CC4)C2N1S(C)(=O)=O` (some centres unmarked) [Compound 119], for which the IC50 stood at 8.77 nM under setting [4] and 445 nM under setting [2].

For the compound `O=C(NCc1ccc(F)cc1F)c1c2n3c(c(O)c1=O)C(=O)N1CCCCOC1C3CC2` (single isomer, unassigned) [Compound 69], the IC50 is, setting by setting: under setting [1], 1.36 nM; under setting [2], 349 nM.

Consider `CCNC1CC2C3OCCCN3C(=O)c3c(O)c(=O)c(C(=O)NCc4cccc(Cl)c4F)c1n32` (centres unmarked) [Compound 195], for which the IC50 under setting [4] came to 12.4 nM and the IC50 under setting [2] stood at 25.7 nM.

As for `CCN1C[C@H](C)N2C(=O)c3c(O)c(=O)c(C(=O)NCc4cccc(Cl)c4F)c4n3C(CC4)C12` (some centres unmarked) [Compound 112], the IC50 reads like this: under setting [4], 0.806 nM; under setting [2], 40.4 nM.

For the compound `C[C@H]1CN(C)C2C3CCc4c(C(=O)NCc5cccc(Cl)c5F)c(=O)c(O)c(n43)C(=O)N21` (some centres unmarked) [Compound 109], the IC50 was determined as 1.17 nM under setting [1] and 480 nM under setting [2].

On to `CC12NCCN1C(=O)c1c(O)c(=O)c(C(=O)NCc3ccc(F)cc3F)c3n1C2CC3` (centres unmarked) [Compound 138], for which the IC50 under setting [4] worked out at 2.41 nM and the IC50 under setting [2] was found to be 27 nM.

Take `CC(=O)N1C2C3CCc4c(C(=O)NCc5cccc(Cl)c5F)c(=O)c(O)c(n43)C(=O)N2C[C@@H]1C` (some centres unmarked) [Compound 123]: the IC50 reads like this: under setting [4], 2.56 nM; under setting [2], 58.6 nM.

As for `O=C(NCc1ccc(F)c(Cl)c1F)c1c2n3c(c(O)c1=O)C(=O)N1C4CCC(C4)OC1C3CC2` (centres unmarked) [Compound 159], the IC50 reads like this: under setting [4], 5.85 nM; under setting [2], 89.3 nM.

For `C[C@H]1CNC2C3CCc4c(C(=O)NCc5cccc(Cl)c5F)c(=O)c(O)c(n43)C(=O)N21` (some centres unmarked) [Compound 88], the IC50 is, setting by setting: under setting [1], 0.705 nM; under setting [3], 13.7 nM.

On to `O=C(NCc1ccccc1F)c1c2n3c(c(O)c1=O)C(=O)N1CCOC1C3CC2` (single isomer, unassigned) [Compound 13], for which the IC50 is, setting by setting: under setting [4], 0.827 nM; under setting [2], 5520 nM.

`CCNC1CC2C3OCCCN3C(=O)c3c(O)c(=O)c(C(=O)NCc4ccc(F)cc4F)c1n32` (centres unmarked) [Compound 202]: the IC50 under setting [4] came out at 7.73 nM and the IC50 under setting [2] was 39.4 nM.

Regarding `O=C(NCc1ccccc1F)c1c2n3c(c(O)c1=O)C(=O)N1CCOC1C3CC2` (single isomer, unassigned) [Compound 12], the IC50 under setting [4] stood at 1.39 nM and the IC50 under setting [2] was 892 nM.

As for `C[C@H]1CN(S(C)(=O)=O)C2C3CCc4c(C(=O)NCc5cccc(Cl)c5F)c(=O)c(O)c(n43)C(=O)N21` (some centres unmarked) [Compound 117], the IC50 runs as follows: under setting [1], 3.78 nM; under setting [3], 130 nM.

For the compound `CN1CCCN2C(=O)c3c(O)c(=O)c(C(=O)NCc4cccc(Cl)c4F)c4n3C(CC4)C12` (single isomer, unassigned) [Compound 84], the IC50 runs as follows: under setting [4], 0.762 nM; under setting [2], 37.5 nM.

As to `O=C(NCc1cccc(F)c1F)c1c2n3c(c(O)c1=O)C(=O)N1C4CCC(C4)OC1C3CC2` (centres unmarked) [Compound 165], the IC50 reads like this: under setting [4], 6.42 nM; under setting [2], 56.1 nM.

`O=C(NCc1cccc(Cl)c1F)c1c2n3c(c(O)c1=O)C(=O)N1CCCO[C@@H]1[C@@H]3CC2` (single isomer, unassigned) [Compound 48]: the IC50 turned out to be 1.31 nM under setting [1] and 27.3 nM under setting [3].

As for `C[C@H]1CN2C(=O)c3c(O)c(=O)c(C(=O)NCc4cccc(Cl)c4F)c4n3C(CC4)C2O1` (some centres unmarked) [Compound 42], the IC50 runs as follows: under setting [1], 1.38 nM; under setting [3], 1570 nM.

For `O=C(NCc1ccc(F)c(Cl)c1F)c1c2n3c(c(O)c1=O)C(=O)N1C4CCC(C4)OC1C3CC2` (centres unmarked) [Compound 158], the IC50 reads like this: under setting [4], 4 nM; under setting [2], 16100 nM.

As for `O=C(NCc1ccc(F)cc1)c1c2n3c(c(O)c1=O)C(=O)N1CCCOC1C3CC2` (single isomer, unassigned) [Compound 53], the IC50 runs as follows: under setting [4], 0.963 nM; under setting [2], 393 nM.

As to `CN1CCCN2C(=O)c3c(O)c(=O)c(C(=O)NCc4ccc(F)cc4F)c4n3C(CC4)C12` (single isomer, unassigned) [Compound 81], the IC50 reads like this: under setting [1], 1.15 nM; under setting [2], 24.2 nM.

`C[C@@H]1CN2C(=O)c3c(O)c(=O)c(C(=O)NCc4cccc(Cl)c4F)c4n3C(CC4)C2O1` (single isomer, unassigned) [Compound 41]: the IC50 is 0.854 nM under setting [4] and 2380 nM under setting [2].

Take `O=C(NCc1cccc(Cl)c1F)c1c2n3c(c(O)c1=O)C(=O)N1C4CCC(C4)OC1C3CC2` (centres unmarked) [Compound 153]: the IC50 under setting [4] came out at 4.53 nM and the IC50 under setting [2] was found to be 95.5 nM.

In the case of `O=C(NCc1ccc(F)cc1F)c1c2n3c(c(O)c1=O)C(=O)N1CCCOC1C3CC2` (single isomer, unassigned) [Compound 56], the IC50 amounted to 0.701 nM under setting [4] and 1800 nM under setting [2].

For `O=C(NCc1ccc(F)cc1F)c1c2n3c(c(O)c1=O)C(=O)N1CCCOC1C3CC2` (single isomer, unassigned) [Compound 58], the IC50 came out at 0.845 nM under setting [4] and 1520 nM under setting [2].

For the compound `O=C(NCc1c(F)cc(F)cc1F)c1c2n3c(c(O)c1=O)C(=O)N1CCOC1C3CC2` (single isomer, unassigned) [Compound 21], the IC50 under setting [4] worked out at 0.605 nM and the IC50 under setting [2] is 158 nM.

As for `O=C(NCc1ccc(F)c(Cl)c1)c1c2n3c(c(O)c1=O)C(=O)N1CCOC1C3CC2` (single isomer, unassigned) [Compound 24], the IC50 under setting [3] came out at 8000 nM and the IC50 under setting [4] was 0.622 nM.

For `C[C@H]1CN2C(=O)c3c(O)c(=O)c(C(=O)NCc4ccc(F)cc4F)c4n3C(CC4)C2N1` (some centres unmarked) [Compound 98], the IC50 reads like this: under setting [4], 1.48 nM; under setting [2], 16 nM.

With `CN1CCCN2C(=O)c3c(O)c(=O)c(C(=O)NCc4cccc(Cl)c4F)c4n3C(CC4)C12` (single isomer, unassigned) [Compound 86], the IC50 came out at 0.426 nM under setting [4] and 9.17 nM under setting [2].

In the case of `O=C(NCc1cccc(Cl)c1F)c1c2n3c(c(O)c1=O)C(=O)N1CCOC1C3CC2` (single isomer, unassigned) [Compound 5], the IC50 under setting [4] came out at 0.409 nM and the IC50 under setting [2] is 2250 nM.

Take `C[C@H]1COC2C3CCc4c(C(=O)NCc5ccc(F)cc5F)c(=O)c(O)c(n43)C(=O)N21` (single isomer, unassigned) [Compound 28]: the IC50 is, setting by setting: under setting [4], 0.401 nM; under setting [2], 257 nM.

In the case of `O=C(NCc1ccc(F)c(Cl)c1F)c1c2n3c(c(O)c1=O)C(=O)N1C4CCC(C4)OC1C3CC2` (centres unmarked) [Compound 157], the IC50 by setting is: under setting [4], 12.9 nM; under setting [2], 733 nM.
